This assay has as its target T1, Androgen Receptor (Homo sapiens, UniProt P10275).
T1 construct: endogenous in cells; host or cells: VCaP cells
T1 sequence (P10275 1-920): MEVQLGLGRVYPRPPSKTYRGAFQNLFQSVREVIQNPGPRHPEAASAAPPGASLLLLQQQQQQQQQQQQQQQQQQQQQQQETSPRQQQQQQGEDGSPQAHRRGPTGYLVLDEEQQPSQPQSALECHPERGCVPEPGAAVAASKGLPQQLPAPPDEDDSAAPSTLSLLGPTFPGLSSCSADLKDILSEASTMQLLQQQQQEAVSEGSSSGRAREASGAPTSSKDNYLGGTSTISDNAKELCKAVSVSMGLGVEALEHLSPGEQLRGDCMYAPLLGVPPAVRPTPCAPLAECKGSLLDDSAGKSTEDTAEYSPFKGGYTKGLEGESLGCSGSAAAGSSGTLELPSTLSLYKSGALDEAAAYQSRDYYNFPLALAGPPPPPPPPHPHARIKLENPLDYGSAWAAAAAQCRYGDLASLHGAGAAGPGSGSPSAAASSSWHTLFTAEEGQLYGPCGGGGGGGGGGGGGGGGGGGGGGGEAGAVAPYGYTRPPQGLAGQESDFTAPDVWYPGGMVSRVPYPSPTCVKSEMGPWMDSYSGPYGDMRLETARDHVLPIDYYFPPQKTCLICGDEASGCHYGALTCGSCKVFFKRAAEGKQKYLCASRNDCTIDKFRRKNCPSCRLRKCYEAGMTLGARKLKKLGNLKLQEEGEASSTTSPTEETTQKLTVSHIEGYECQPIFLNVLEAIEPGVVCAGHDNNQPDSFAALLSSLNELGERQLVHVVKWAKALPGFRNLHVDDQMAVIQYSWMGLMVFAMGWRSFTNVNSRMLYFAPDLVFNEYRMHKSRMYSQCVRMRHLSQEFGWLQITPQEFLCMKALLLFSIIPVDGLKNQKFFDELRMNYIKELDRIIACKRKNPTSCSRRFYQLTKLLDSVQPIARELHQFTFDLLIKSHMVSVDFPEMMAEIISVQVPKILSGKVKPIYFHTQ
The assay is described as follows: Androgen Receptor ELISA assay (PathScan AR ELISA) in VCaP cells: AR degradation, Dmax and DC50. The class given is cell-based. The gist of the method: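 VCaP cells in phenol red-free RPMI with 5% charcoal-stripped FBS were grown at least 3 days, then given compound as 7 half-log doses in 0.1% DMSO with 0.1 nM R1881 for 24 h. Lysates went into a sandwich AR ELISA with TMB read at 450 nm.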
For orientation: An ELISA detects its analyte on a solid surface through an enzyme-linked reagent.

Setting [1] is: VCaP cells; Table 35; read-out: VCaP DC50.
[2] abbreviates: VCaP, VCaP cells; Table 35; read-out: VCaP Dmax (%).
The mark [3] stands for this setting: read-out: VCaP DC50; VCaP cells; Table 35.

The values that follow come from patent US11427548B2 (Arvinas Operations, Inc., priority 2015, dated 2022).

Like-named read-outs stand apart in the source and are kept apart here.

On to `CC(C)(C)[C@H](NC(=O)COCCCCCNc1ccc(C(=O)N[C@H]2C(C)(C)[C@H](Oc3ccc(C#N)c(Cl)c3)C2(C)C)cc1)C(=O)N1C[C@H](O)C[C@H]1C(=O)NCc1ccc(-c2ncccn2)cc1` [Example 535], for which the DC50 (as a rule, the concentration giving 50% degradation) under setting [1] was less than 50 nM. Also, the maximal degradation (Dmax) (commonly the largest share of the target that was removed) under setting [2] lay within 26 to 50%. For the compound `CC(C)(C)[C@H](NC(=O)COCCCCCNc1ccc(C(=O)N[C@H]2C(C)(C)[C@H](Oc3ccc(C#N)c(Cl)c3)C2(C)C)cc1)C(=O)N1C[C@H](O)C[C@H]1C(=O)NCc1ccc(-c2ccccn2)cc1` [Example 536], the half-maximal degradation concentration (DC50) under setting [1] was less than 50 nM. Moreover, under setting [2], the Dmax fell in the range of 26 to 50%. On the same counts, the results for `Cc1ncsc1-c1ccc(CNC(=O)[C@@H]2C[C@@H](O)CN2C(=O)[C@@H](NC(=O)COCCCCCNc2ccc(C(=O)N[C@H]3C(C)(C)[C@H](Oc4ccc(C#N)c(Cl)c4)C3(C)C)cc2)C(C)C)cc1` [Example 537] are less than 50 nM and 26 to 50%. As for `Cc1ncsc1-c1ccc(CNC(=O)[C@@H]2C[C@@H](O)CN2C(=O)[C@@H](NC(=O)COCCCCCNc2ccc(C(=O)N[C@H]3C(C)(C)[C@H](Oc4ccc(C#N)c(Cl)c4)C3(C)C)cc2)C(C)(C)C)nc1` [Example 538], the DC50 under setting [1] is greater than 501 nM. Under setting [2], the Dmax lay in the range of 51 to 70%. On the same counts, the results for `CC(C)(C)[C@H](NC(=O)COCCCCCNc1ccc(C(=O)N[C@H]2C(C)(C)[C@H](Oc3ccc(C#N)c(Cl)c3)C2(C)C)cc1)C(=O)N1C[C@H](O)C[C@H]1C(=O)NCc1ccc(C#N)cn1` [Example 539] are less than 50 nM and 26 to 50%. Consider `CC(C)(C)[C@H](NC(=O)COCCNc1ccc(-c2ccc(C(=O)N[C@H]3C(C)(C)[C@H](Oc4ccc(C#N)c(Cl)c4)C3(C)C)cc2)cn1)C(=O)N1C[C@H](O)C[C@H]1C(=O)NCc1ccc(C#N)cc1` [Example 540], for which, under setting [1], the half-maximal degradation concentration (DC50) is less than 50 nM. In addition, under setting [2], the greatest degradation seen (Dmax) was greater than 71%. On the same counts, the results for `C[C@H](NC(=O)[C@@H]1C[C@@H](O)CN1C(=O)[C@@H](NC(=O)COCCCCCNc1ccc(C(=O)N[C@H]2C(C)(C)[C@H](Oc3ccc(C#N)c(Cl)c3)C2(C)C)cc1)C(C)(C)C)c1ccc(C#N)cc1` [Example 541] are less than 50 nM and greater than 71%. `CC(C)(C)[C@H](NC(=O)COCCCCCNc1ccc(C(=O)N[C@H]2C(C)(C)[C@H](Oc3ccc(C#N)c(Cl)c3)C2(C)C)cc1)C(=O)N1C[C@H](O)C[C@H]1C(=O)NCc1ccc(C#N)cc1` [Example 542]: under setting [1], the half-maximal degradation concentration (DC50) is less than 50 nM. Further, the Dmax under setting [2] is greater than 71%. Take `Cc1ncsc1-c1ccc(CNC(=O)[C@@H]2C[C@@H](O)CN2C(=O)[C@@H](NC(=O)COCCOc2ccc(-c3c(F)cc(C(=O)N[C@H]4C(C)(C)[C@H](Oc5ccc(C#N)c(Cl)c5)C4(C)C)cc3F)cc2)C(C)(C)C)cc1` [Example 543]: under setting [1], the DC50 was less than 50 nM. Under setting [2], the maximal degradation (Dmax) is greater than 71%. In the same order, the values of `Cc1ncsc1-c1ccc(CNC(=O)[C@@H]2C[C@@H](O)CN2C(=O)[C@@H](NC(=O)COCCN2CCN(c3ccc(C(=O)N[C@H]4C(C)(C)[C@H](Oc5ccc(C#N)c(Cl)c5)C4(C)C)cc3)CC2)C(C)(C)C)cc1` [Example 544] are less than 50 nM and greater than 71%.

Consider `Cc1ncsc1-c1ccc(CNC(=O)[C@@H]2C[C@@H](O)CN2C(=O)[C@@H](NC(=O)COCCCCOc2ccc(-c3ccc(N4C(=S)N(c5ccc(C#N)c(C(F)(F)F)c5)C(=O)C4(C)C)cc3)cc2)C(C)(C)C(=O)OC(C)(C)C)cc1` [Example 545], for which the Dmax (VCaP, read-out: VCaP Dmax (%)) was in the range of 51 to 70%. In addition, the 50% degradation concentration (DC50) under setting [3] was less than 50 nM. As to `Cc1ncsc1-c1ccc(CNC(=O)[C@@H]2C[C@@H](O)CN2C(=O)[C@@H](NC(=O)COCCCCOc2ccc(-c3ccc(N4C(=S)N(c5ccc(C#N)c(C(F)(F)F)c5)C(=O)C4(C)C)cc3)cc2)C(C)(C)C(=O)O)cc1` [Example 546], under setting [3], the DC50 is greater than 501 nM. `CC(C)(C)[C@H](NC(=O)COCCCCNc1ccc(C(=O)N[C@H]2C(C)(C)[C@H](Oc3ccc(C#N)c(Cl)c3)C2(C)C)cc1)C(=O)N1C[C@H](O)C[C@H]1C(=O)NCc1ccc(C#N)cc1` [Example 547]: the half-maximal degradation concentration (DC50) under setting [1] is less than 50 nM. Moreover, the Dmax under setting [2] was 51 to 70%.

As for `C[C@H](NC(=O)[C@@H]1C[C@@H](O)CN1C(=O)[C@@H](NC(=O)COCCCCOc1ccc(C(=O)N[C@H]2C(C)(C)[C@H](Oc3ccc(C#N)c(Cl)c3)C2(C)C)cc1)C(C)(C)C)c1ccc(C#N)cc1` [Example 548], under setting [1], the half-maximal degradation concentration (DC50) is less than 50 nM. Also, the Dmax under setting [2] lay within 51 to 70%. On the same counts, the results for `C[C@H](NC(=O)[C@@H]1C[C@@H](O)CN1C(=O)[C@@H](NC(=O)COCCOc1ccc(-c2ccc(C(=O)N[C@H]3C(C)(C)[C@H](Oc4ccc(C#N)c(Cl)c4)C3(C)C)cc2)cc1)C(C)(C)C)c1ccc(C#N)cc1` [Example 549] are less than 50 nM and greater than 71%. On the same counts, the results for `CC(C)(C)[C@H](NC(=O)COCCOc1ccc(-c2ccc(C(=O)N[C@H]3C(C)(C)[C@H](Oc4ccc(C#N)c(Cl)c4)C3(C)C)cc2)cc1)C(=O)N1C[C@H](O)C[C@H]1C(=O)NCc1ccc(C#N)cc1` [Example 550] are less than 50 nM and greater than 71%. Consider `CC(C)(C)[C@H](NC(=O)COCCCCCNc1ccc(C(=O)N[C@H]2C(C)(C)[C@H](Oc3ccc(C#N)c(Cl)c3)C2(C)C)cn1)C(=O)N1C[C@H](O)C[C@H]1C(=O)NCc1ccc(C#N)cc1` [Example 551], for which the DC50 under setting [1] was less than 50 nM. Under setting [2], the Dmax lay within 51 to 70%. In the same order, the values of `CC(C)(C)[C@H](NC(=O)COCCCCCNc1ccc(C(=O)N[C@H]2C(C)(C)[C@H](Oc3ccc(C#N)c(Cl)c3)C2(C)C)cc1)C(=O)N1C[C@H](O)C[C@H]1C(=O)NCc1ccc(Cl)cc1` [Example 552] are less than 50 nM and 51 to 70%. With `Cc1ncsc1-c1ccc(CNC(=O)[C@@H]2C[C@@H](O)CN2C(=O)[C@@H](NC(=O)COCCNc2ccc(-c3ccc(C(=O)N[C@H]4C(C)(C)[C@H](Oc5ccc(C#N)c(Cl)c5)C4(C)C)cc3)cn2)C(C)(C)C)cc1` [Example 553], the DC50 under setting [1] was less than 50 nM. For the same compound, the Dmax under setting [2] was greater than 71%.

Consider `Cc1ncsc1-c1ccc(CNC(=O)[C@@H]2C[C@@H](O)CN2C(=O)[C@@H](NC(=O)COCCCCNc2ccc(-c3ccc(N4C(=S)N(c5ccc(C#N)c(C(F)(F)F)c5)C(=O)C4(C)C)cc3)cn2)C(C)(C)C)cc1` [Example 554], for which the Dmax (VCaP, read-out: VCaP Dmax (%)) lay within 51 to 70%. For the same compound, the DC50 under setting [3] was less than 50 nM. `CC(C)(C)[C@H](NC(=O)COCCCCCNc1ccc(C(=O)N[C@H]2C(C)(C)[C@H](Oc3ccc(C#N)c(Cl)c3)C2(C)C)cc1)C(=O)N1C[C@H](O)C[C@H]1C(=O)NCc1ccc(-c2scnc2C2CC2)cc1` [Example 555]: under setting [1], the DC50 was less than 50 nM. Further, under setting [2], the Dmax was greater than 71%. In the case of `CC(C)c1ncsc1-c1ccc(CNC(=O)[C@@H]2C[C@@H](O)CN2C(=O)[C@@H](NC(=O)COCCCCCNc2ccc(C(=O)N[C@H]3C(C)(C)[C@H](Oc4ccc(C#N)c(Cl)c4)C3(C)C)cc2)C(C)(C)C)cc1` [Example 556], the DC50 under setting [1] was less than 50 nM. Under setting [2], the greatest degradation seen (Dmax) is greater than 71%.

`Cc1ncsc1-c1ccc([C@H](C)NC(=O)[C@@H]2C[C@@H](O)CN2C(=O)[C@@H](NC(=O)COC[C@H](O)[C@@H](O)COc2ccc(-c3ccc(N4C(=S)N(c5ccc(C#N)c(C(F)(F)F)c5)C(=O)C4(C)C)cc3)cc2)C(C)(C)C)cc1` [Example 559]: the maximal degradation (Dmax) (VCaP, read-out: VCaP Dmax (%)) was greater than 71%. The 50% degradation concentration (DC50) under setting [3] was less than 50 nM. Turning to `Cc1ncsc1-c1ccc(CNC(=O)[C@@H]2C[C@@H](O)CN2C(=O)[C@@H](NC(=O)COC[C@@H](O)[C@H](O)COc2ccc(C(=O)N[C@H]3C(C)(C)[C@H](Oc4ccc(C#N)c(Cl)c4)C3(C)C)cc2)C(C)(C)C)cc1` [Example 563], under setting [1], the half-maximal degradation concentration (DC50) was less than 50 nM. The maximal degradation (Dmax) under setting [2] is 51 to 70%. On the same counts, the results for `Cc1ncsc1-c1ccc(CNC(=O)[C@@H]2C[C@@H](O)CN2C(=O)[C@@H](NC(=O)COC[C@H]2C[C@H](Oc3ccc(C(=O)N[C@H]4C(C)(C)[C@H](Oc5ccc(C#N)c(Cl)c5)C4(C)C)cc3)C2)C(C)(C)C)cc1` [Example 564] are less than 50 nM and greater than 71%. Turning to `Cc1ncsc1-c1ccc(CNC(=O)[C@@H]2C[C@@H](O)CN2C(=O)[C@@H](NC(=O)COC[C@H]2C[C@H](Oc3ccc(-c4ccc(N5C(=S)N(c6ccc(C#N)c(C(F)(F)F)c6)C(=O)C5(C)C)cc4)cc3)C2)C(C)(C)C)cc1` [Example 565], under “VCaP, read-out: VCaP Dmax (%)”, the Dmax is greater than 71%. Further, the half-maximal degradation concentration (DC50) under setting [3] is less than 50 nM. On the same counts, the results for `Cc1ncsc1-c1ccc(CNC(=O)[C@@H]2C[C@@H](O)CN2C(=O)[C@@H](NC(=O)COC[C@@H](O)[C@H](O)COc2ccc(-c3ccc(N4C(=S)N(c5ccc(C#N)c(C(F)(F)F)c5)C(=O)C4(C)C)cc3)cc2)C(C)(C)C)cc1` [Example 566] are 51 to 70% and less than 50 nM.
